Measurements: paper PMC7109250, “Cloning and Functional Characterization of Three Odorant Receptors From the Chinese Citrus fly Bactrocera minax (Diptera: Tephritidae)” (Frontiers in Physiology, 2020)
pEC50: −log10 of the molar value.

target: T1, BminOR12 (Bactrocera minax, UniProt A0A6H1V5Y2); test: two-electrode voltage clamp in Xenopus oocytes, mean current at […]; type: cell-based
T1 construct: gene OR12; full-length ORF (415 amino acid residues), GenBank MN855530; with BminOrco
T1 sequence (A0A6H1V5Y2 1-415): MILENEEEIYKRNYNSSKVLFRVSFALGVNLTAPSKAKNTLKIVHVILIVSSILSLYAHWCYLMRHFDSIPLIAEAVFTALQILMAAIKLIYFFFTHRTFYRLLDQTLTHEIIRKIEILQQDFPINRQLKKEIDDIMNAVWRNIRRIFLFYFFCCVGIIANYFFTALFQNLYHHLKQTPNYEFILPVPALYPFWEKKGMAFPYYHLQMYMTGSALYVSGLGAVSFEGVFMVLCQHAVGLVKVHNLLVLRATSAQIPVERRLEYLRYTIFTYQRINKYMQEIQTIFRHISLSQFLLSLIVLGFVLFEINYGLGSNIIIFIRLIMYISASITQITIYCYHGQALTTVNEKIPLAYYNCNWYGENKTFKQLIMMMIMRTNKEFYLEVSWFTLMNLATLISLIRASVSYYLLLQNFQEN
T1 sequence (A0A3G2LEL3 1-517 partner): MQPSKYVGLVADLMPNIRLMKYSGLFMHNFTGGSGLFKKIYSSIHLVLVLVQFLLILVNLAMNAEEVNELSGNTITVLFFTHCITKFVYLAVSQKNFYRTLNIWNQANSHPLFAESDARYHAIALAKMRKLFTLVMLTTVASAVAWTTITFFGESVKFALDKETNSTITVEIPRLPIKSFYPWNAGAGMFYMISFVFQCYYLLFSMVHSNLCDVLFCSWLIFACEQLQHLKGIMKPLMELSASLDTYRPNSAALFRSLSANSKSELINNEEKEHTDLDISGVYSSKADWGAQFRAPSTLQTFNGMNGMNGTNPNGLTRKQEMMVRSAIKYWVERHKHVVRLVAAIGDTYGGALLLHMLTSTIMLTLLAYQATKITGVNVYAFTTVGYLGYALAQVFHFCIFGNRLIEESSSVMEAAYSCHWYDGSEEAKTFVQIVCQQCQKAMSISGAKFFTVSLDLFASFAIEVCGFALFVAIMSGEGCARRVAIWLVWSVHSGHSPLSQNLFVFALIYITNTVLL
Text: The respective mean response values of these are | BminOR12/BminOrco responded to eight compounds: benzyl alcohol, (S)-(+)-carvone, 1-octanol, butyl propionate, butyl acrylate

SMILES	two-electrode voltage clamp in Xenopus oocytes, mean current at 10^-4 M [nA]
O=Cc1ccccc1 [compound 9, benzaldehyde]	94
COC(=O)c1ccccc1O [compound 10, methyl salicylate]	138
C=C(C)[C@H]1CC=C(C)C(=O)C1 [compound 15, (S)-(+)-carvone]	34
OCc1ccccc1 [compound 16, benzyl alcohol]	33
CCCCOC(=O)CC [compound 31, butyl propionate]	60
CCCCCCCCO [compound 37, 1-octanol]	46
C=CC(=O)OCCCC [compound 40, butyl acrylate]	63
CC/C=C\CCOC(C)=O [compound 43, (Z)-3-hexenyl acetate]	91

target: T2, BminOR3 (Bactrocera minax, UniProt A0A6N0A5L8); test: two-electrode voltage clamp in Xenopus oocytes co-expressing BminOR3/BminOrco, dose-response; type: cell-based
T2 construct: gene OR5; full-length ORF (450 amino acid residues), GenBank MN537976; with BminOrco
T2 sequence (A0A6N0A5L8 1-451): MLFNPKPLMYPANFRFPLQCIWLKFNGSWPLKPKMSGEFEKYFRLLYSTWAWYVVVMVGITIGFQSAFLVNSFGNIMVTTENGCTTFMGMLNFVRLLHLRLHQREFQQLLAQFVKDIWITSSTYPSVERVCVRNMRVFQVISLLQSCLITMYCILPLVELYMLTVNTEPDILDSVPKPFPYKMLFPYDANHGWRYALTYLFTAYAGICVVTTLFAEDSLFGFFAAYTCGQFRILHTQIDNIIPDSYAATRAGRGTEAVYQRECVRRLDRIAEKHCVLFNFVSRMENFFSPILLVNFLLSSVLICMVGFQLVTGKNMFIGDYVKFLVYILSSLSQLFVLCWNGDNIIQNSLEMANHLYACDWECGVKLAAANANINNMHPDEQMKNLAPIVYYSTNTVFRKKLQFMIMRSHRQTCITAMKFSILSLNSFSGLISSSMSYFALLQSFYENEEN
T2 sequence (A0A3G2LEL3 1-517 partner): T1 sequence (A0A3G2LEL3 1-517 partner)
Text: two-electrode voltage clamp in Xenopus oocytes co-expressing BminOR3/BminOrco, dose-response on BminOR3 | Dose-response curve of BminOR3/BminOrco Xenopus oocytes to 1-octen-3-ol.

SMILES	pEC50
C=CC(O)CCCCC (stereo not shown) [compound 2, 1-octen-3-ol]	6.46

target: T3, BminOR16 (Bactrocera minax, UniProt A0A6N0A5X5); test: two-electrode voltage clamp in Xenopus oocytes, mean current at […]; type: cell-based
T3 construct: gene OR16; full-length ORF (404 amino acid residues), GenBank MN537977; with BminOrco
T3 sequence (A0A6N0A5X5 1-405): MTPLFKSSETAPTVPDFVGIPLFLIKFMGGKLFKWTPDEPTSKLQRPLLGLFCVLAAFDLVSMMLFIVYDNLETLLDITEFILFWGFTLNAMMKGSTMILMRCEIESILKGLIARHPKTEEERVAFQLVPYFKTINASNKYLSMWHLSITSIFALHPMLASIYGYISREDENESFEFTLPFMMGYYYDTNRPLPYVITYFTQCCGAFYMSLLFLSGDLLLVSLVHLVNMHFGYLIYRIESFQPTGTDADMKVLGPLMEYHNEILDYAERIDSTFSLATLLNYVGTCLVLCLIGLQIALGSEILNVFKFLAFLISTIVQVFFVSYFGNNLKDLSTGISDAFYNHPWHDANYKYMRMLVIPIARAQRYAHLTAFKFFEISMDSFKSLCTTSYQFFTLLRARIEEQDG
T3 sequence (A0A3G2LEL3 1-517 partner): T1 sequence (A0A3G2LEL3 1-517 partner)

SMILES	two-electrode voltage clamp in Xenopus oocytes, mean current at 10^-4 M [nA]
CCCCCCCCCCCO [compound 35, undecanol]	87
